From US12404304B1, “Telomerase reverse transcriptase (TERT) expression enhancing compounds and methods for using the same” (Sierra Sciences, LLC, priority 2007, dated 2025)
Where two headings read alike, the source gives them in different places.

Columns and labels:
[1] = system: human TERT expression (hTERT mRNA); assay: Quantitative real-time RT-PCR of hTERT mRNA expression (Ct, transcripts) in compound-treated cells; assay type: cell-based
Method in brief: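 Read-out is cycle threshold, the cycle at which probe fluorescence released by Taq 5′-nuclease activity crosses a set level; Ct falls as hTERT mRNA rises. cDNA of treated and untreated cells was compared, with starting transcripts quantified against a known-cDNA standard curve.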

[2] = system: viable cells in culture; assay: Cell viability assay (CellTiter-Glo Luminescent Cell Viability Assay, ATP quantitation, percent of vehicle control)

Structure (SMILES) | Average Number of hTERT Transcripts ([1]; quantitative real-time RT-PCR) | Average Cell Viability after 24 Hours (% DMSO) [2] [% DMSO] | Average Number of hTERT Transcripts [1]
CCC(C)Cn1c(CO)nc2ccccc21 (centres unmarked) [compound 1340] | 4.37 | 106.88 | –
Cc1ccc(-c2cc(C(=O)NCCc3ccc(S(N)(=O)=O)cc3)no2)cc1 [compound 1487] | – | 95.31 | 1.93
S=C(Nc1ccc(Oc2ccccc2)cc1)Nc1ccc(Cl)cc1Cl [compound 1540] | – | 68.10 | 9.11
Cc1nn2c(=O)cc(-c3ccc(F)cc3)[nH]c2c1-c1ccccc1 [compound 1169] | 122.92 | 56.42 | –
CC(=O)c1ccc(NC(=S)Nc2ccc(Br)c(Cl)c2)cc1 [compound 1439] | – | 51.61 | 11.63
COc1ccccc1OCC(=O)N/N=C/c1cccc2cccnc12 [compound 1288] | 18.81 | 78.28 | –
O=C(NC(c1ccccc1)c1ccc(Br)cc1)c1cccc(F)c1 (centres unmarked) [compound 1408] | – | 89.70 | 3.47
c1ccc(-c2nc3ccccn3c2Nc2ccc3c(c2)OCCO3)nc1 [compound 1552] | – | 64.55 | 21.09
NCCC(=O)N[C@@H](Cc1cnc[nH]1)C(=O)O [compound 1557] | – | 97.77 | 54.80
Cc1ccc(N2CC(C(=O)N3CC(C)CC(C)C3)CC2=O)c(C)c1 (centres unmarked) [compound 1364] | 9.06 | 104.57 | –
CCOC(=O)c1ccc(Nc2nc3nonc3nc2N(CC)CC)cc1 [compound 1228] | 48.23 | 73.46 | –
O=C(CS(=O)(=O)c1ccc(F)cc1)Nc1nc(-c2ccccn2)cs1 [compound 1203] | 119.23 | 73.09 | –
Cc1ccc(S(=O)(=O)Nc2ccc([N+](=O)[O-])cc2)cc1 [compound 1535] | – | 88.02 | 3.69
Cc1cc(OCC(=O)Nc2ccc(S(=O)(=O)Nc3nccs3)cc2)ccc1C(C)C [compound 1396] | – | 88.25 | 12.14
O=C(Nc1nccs1)c1sc2ccccc2c1Cl [compound 1316] | 13.39 | 73.91 | –
Cc1ccnc(NC(c2ccc([N+](=O)[O-])cc2)c2ccc3ccc(C)nc3c2O)c1 (centres unmarked) [compound 1081] | 18.87 | 70.69 | –
O=C(CN1C(C(=O)c2ccccc2)=C(O)c2ccccc2S1(=O)=O)c1ccccc1 [compound 1212] | 38.44 | 80.54 | –
O=C(CN1C(C(=O)c2ccccc2)=C(O)c2ccccc2S1(=O)=O)c1ccc(Br)cc1 [compound 1210] | 26.56 | 62.70 | –
O=C(NCCc1c[nH]c2c(OCc3ccccc3)cccc12)c1cc(-c2cccs2)on1 [compound 1498] | – | 94.63 | 16.50
O=C(N/N=C/c1ccccc1O)/C(=C\c1cccs1)NC(=O)c1ccccc1 [compound 1293] | 37.88 | 89.97 | –
Cc1nn2c(-c3cccnc3)nnc2s1 [compound 1369] | 15.35 | 98.38 | –
O=C(O)C1C2CCC(O2)C1C(=O)N1CCN(c2ccc(F)cc2)CC1 (centres unmarked) [compound 1223] | 24.63 | 44.16 | –
